Measurements as given in ChEMBL document CHEMBL1201862, “PubChem BioAssay data set” (2004).
Values joined by “and” are separate entries in the source; they are usually repeats but may differ in a detail not shown here. Equal values may be shown once. Active and inactive are the calls of the source.

Assays:
[1] = target: Cytochrome P450 3A4 (Homo sapiens, UniProt P08684);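 further: CYP3A4 tested as one member of a cytochrome P450 panel screen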
[2] = test system: Streptococcus sp. 'group A'; experiment: Streptococcus pyogenes SK(-)GAS viability under kanamycin – luminescence, BacTiterGlo, confirmation, counter-screen for streptokinase expression inhibitor project, dose response (AID 1900); type: functional, organism-based
[3] = target: T1, Streptokinase A (Streptococcus pyogenes serotype M1, UniProt P10520); experiment: viability-normalized secreted streptokinase activity reduction – plasminogen activation absorbance, OD405, dose response (AID 1914); type: functional, Streptococcus pyogenes M1 GAS;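 further: secreted streptokinase activity via plasminogen activation per viability signal from cell pellet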
T1 sequence (P10520 whole entry): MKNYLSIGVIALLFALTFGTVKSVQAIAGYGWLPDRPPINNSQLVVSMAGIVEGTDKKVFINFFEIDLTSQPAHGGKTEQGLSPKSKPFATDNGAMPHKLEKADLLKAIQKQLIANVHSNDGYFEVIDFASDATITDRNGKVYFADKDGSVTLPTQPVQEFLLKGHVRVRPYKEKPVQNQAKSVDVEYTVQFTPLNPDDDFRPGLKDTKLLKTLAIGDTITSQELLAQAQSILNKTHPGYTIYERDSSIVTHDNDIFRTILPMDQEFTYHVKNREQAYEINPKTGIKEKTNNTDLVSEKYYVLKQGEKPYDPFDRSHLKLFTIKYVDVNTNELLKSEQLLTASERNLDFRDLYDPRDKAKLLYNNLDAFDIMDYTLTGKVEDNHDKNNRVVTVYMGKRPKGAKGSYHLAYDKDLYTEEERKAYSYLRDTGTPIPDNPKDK

[4] = test system: Streptococcus; experiment: GAS UMAA2166 growth inhibition – luminescence, BacTiterGlo, counter-screen for streptokinase expression inhibitor project, dose response (AID 1915); type: functional, organism-based;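 further: potency for reduction of bacterial viability or growth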
[5] = target: Cytochrome P450 2C19 (Homo sapiens, UniProt P33261); experiment: Cytochrome panel assay with activity outcomes. Panel member name: p450-cyp2c19 Compounds with AC50 equal or less than 10 uM are considered active; type: functional
Cytochrome P450 2C19, sequence (P33261 whole entry): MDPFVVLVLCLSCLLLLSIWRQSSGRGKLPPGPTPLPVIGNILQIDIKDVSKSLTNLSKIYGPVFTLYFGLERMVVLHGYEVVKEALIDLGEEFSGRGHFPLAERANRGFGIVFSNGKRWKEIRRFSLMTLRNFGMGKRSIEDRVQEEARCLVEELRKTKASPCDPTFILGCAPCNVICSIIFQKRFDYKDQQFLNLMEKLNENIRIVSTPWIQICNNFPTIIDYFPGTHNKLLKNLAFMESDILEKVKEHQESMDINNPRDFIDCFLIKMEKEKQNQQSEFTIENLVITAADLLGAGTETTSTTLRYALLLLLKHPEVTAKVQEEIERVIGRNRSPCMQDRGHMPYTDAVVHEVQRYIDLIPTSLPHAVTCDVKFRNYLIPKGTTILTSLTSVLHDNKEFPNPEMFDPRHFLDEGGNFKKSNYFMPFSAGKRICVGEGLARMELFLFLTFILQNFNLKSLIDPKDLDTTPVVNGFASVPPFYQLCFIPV

[6] = target: Cytochrome P450 2D6 (Homo sapiens, UniProt P10635);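 further: CYP2D6 member of a cytochrome P450 panel assay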
Cytochrome P450 2D6, sequence (P10635 whole entry): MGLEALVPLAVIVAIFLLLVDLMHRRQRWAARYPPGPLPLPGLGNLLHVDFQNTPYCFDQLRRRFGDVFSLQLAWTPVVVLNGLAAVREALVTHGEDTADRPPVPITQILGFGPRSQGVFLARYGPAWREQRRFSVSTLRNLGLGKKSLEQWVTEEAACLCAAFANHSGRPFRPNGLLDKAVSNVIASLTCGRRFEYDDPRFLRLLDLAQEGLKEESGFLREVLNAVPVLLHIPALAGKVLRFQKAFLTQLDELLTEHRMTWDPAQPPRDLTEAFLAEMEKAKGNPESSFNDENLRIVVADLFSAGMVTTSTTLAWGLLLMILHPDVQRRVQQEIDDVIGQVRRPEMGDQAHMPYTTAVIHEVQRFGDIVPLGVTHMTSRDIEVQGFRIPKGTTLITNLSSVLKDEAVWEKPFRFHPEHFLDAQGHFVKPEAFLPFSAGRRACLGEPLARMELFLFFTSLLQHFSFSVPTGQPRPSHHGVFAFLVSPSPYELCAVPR

[7] = target: T2, Corticotropin-releasing factor receptor 2/Corticotropin-releasing factor-binding protein (Homo sapiens, UniProt P24387+Q13324); experiment: Dose Response confirmation of uHTS hits for small molecule antagonists of the CRF-binding protein and CRF-R2 receptor complex.; type: functional; conditions: read-out: IC50_Mean
T2 sequence (Q13324 whole entry): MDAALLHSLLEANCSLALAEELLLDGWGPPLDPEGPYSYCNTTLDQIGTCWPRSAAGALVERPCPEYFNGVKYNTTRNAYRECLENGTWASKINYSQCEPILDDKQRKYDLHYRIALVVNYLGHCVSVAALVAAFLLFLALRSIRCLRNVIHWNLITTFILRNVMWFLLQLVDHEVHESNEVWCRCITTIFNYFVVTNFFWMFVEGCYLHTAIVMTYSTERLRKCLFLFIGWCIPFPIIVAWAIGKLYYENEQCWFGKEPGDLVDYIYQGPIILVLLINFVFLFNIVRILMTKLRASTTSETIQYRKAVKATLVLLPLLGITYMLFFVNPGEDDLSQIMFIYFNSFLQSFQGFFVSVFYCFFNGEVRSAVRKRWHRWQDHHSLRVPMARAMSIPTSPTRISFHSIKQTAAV
T2 sequence (P24387 whole entry): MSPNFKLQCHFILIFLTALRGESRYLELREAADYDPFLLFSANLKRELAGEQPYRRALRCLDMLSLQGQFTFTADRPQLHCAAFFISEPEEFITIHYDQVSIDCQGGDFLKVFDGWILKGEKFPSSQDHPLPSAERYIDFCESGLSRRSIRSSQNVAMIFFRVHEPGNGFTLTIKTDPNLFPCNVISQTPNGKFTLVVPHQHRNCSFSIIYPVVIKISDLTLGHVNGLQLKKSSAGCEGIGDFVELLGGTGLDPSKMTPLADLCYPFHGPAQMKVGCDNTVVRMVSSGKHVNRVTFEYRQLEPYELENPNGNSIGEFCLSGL

[8] = target: T2, Corticotropin-releasing factor receptor 2/Corticotropin-releasing factor-binding protein; experiment: activators of CRF receptor 2 with binding protein – uHTS hits, confirmation (AID 602473); type: functional; conditions: read-out: EC50_Mean
[9] = Luminescence Cell-Based Dose Response HTS to Identify Activators of Luciferase Translation or Activity in H4 […] Cells. [Related pubchem assays: 1829 (Project Summary), 1814 (Primary HTS)]; type: functional
[10] = test system: H4; experiment: Luminescence Cell-Based Dose Response HTS to Identify Activators of 5'UTR Stem-Loop Driven Prion Protein mRNA Translation in H4 Neuroglioblastoma Cells. [Related pubchem assays: 1829 (Project Summary), 1814 (Primary HTS)]; type: functional; conditions: Homo sapiens
[11] = target: Cytochrome P450 2C9 (Homo sapiens, UniProt P11712)
Cytochrome P450 2C9, sequence (P11712 whole entry): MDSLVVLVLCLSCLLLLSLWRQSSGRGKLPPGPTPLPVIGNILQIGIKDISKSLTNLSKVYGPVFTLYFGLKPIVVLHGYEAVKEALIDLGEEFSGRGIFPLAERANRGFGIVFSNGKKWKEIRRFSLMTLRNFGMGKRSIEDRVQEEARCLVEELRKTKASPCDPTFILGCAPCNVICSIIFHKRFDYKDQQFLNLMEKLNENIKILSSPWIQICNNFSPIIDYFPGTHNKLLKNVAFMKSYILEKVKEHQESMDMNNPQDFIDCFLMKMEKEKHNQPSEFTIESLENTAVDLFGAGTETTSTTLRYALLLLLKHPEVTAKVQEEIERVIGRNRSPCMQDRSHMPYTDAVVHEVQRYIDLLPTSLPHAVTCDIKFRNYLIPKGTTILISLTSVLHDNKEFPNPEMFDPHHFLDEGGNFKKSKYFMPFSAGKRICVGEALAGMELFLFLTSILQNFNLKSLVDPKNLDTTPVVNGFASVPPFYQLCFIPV

Cytochrome P450 3A4, sequence (P08684 whole entry): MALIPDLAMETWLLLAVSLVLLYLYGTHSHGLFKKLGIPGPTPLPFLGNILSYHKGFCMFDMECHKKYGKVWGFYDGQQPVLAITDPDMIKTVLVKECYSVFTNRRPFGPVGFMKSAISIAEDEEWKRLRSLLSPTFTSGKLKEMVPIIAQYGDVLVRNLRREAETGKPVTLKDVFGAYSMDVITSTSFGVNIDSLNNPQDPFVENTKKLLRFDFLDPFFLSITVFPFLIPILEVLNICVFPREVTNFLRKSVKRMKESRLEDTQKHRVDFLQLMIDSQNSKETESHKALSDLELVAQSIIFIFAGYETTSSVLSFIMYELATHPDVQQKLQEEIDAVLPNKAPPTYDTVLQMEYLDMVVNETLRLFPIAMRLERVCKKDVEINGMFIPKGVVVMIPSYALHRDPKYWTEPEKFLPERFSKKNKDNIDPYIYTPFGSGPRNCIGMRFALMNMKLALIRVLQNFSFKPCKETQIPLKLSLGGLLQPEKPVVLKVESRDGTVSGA

| Compound | AC50 [1] | IC50 [7] | EC50 [8] | other results |
| --- | --- | --- | --- | --- |
| CO[C@@H]1COC(=O)C/C=C\[C@@H](C)COC(=O)[C@H](COCc2ccccc2)NC(=O)C/C=C\[C@H]1C | 3.98 µM (inconclusive) |  |  |  |
| CC(C)(C)c1cc(NCc2ccccn2)n2ncc(-c3ccc(Cl)cc3)c2n1 |  |  |  | EC50 [2]: 2.44 µM (active); EC50 [3]: > 150 µM (not active); EC50 [4]: 3.1 µM (active) |
| NC[C@H](O)c1cc(O)c(O)cc1F | 31.6 µM (inconclusive) |  |  |  |
| Cc1ccc(C(=O)Nc2nc3ccccc3n3nnnc23)cc1 | 10 µM (inconclusive) |  |  | AC50 ([5]; read-out: AC50): 14.1 µM (inconclusive); AC50 [6]: 12.6 µM (inconclusive) |
| CC(=O)Nc1ccc(NC(=O)COc2ccc([N+](=O)[O-])cc2)cc1 |  | > 47.1 µM (inactive) | > 53 µM (inactive) |  |
| CC1CN(C2CCN(C(=O)c3cccc(Cl)c3)CC2)CC(C)O1 (centres undefined) |  |  |  | AC50 ([5]; read-out: AC50): 5.62 µM (inconclusive); AC50 [6]: 0.891 µM (inconclusive) |
| COc1ccc(S(=O)(=O)N2CCN(C(=O)CCCN3C(=O)NC4(CCCC4)C3=O)CC2)cc1 |  | > 47.1 µM (inactive) | > 53 µM (inactive) |  |
| COc1ccc2[nH]cc(CCNc3cc(-c4cccc(C#N)c4)ncn3)c2c1 |  |  |  | AC50 [6]: 20 µM (inconclusive) |
| CCCc1ccc2oc(C(=O)N3CCC[C@H]3CO)c(C)c2c1 |  |  |  | EC50 [9]: 1.11 µM (active); EC50 [10]: > 120 µM (not active) |
| C=C1C(O)(c2ccccc2)C2CC[N+]1(C)CC2.[Cl-] (centres undefined) | 3.16 µM (inconclusive) |  |  | AC50 [5]: inconclusive |
| CC(Oc1ccc(Cl)cc1Cl)C(=O)NC1=NN(c2ccccc2)C(=O)C1 (centres undefined) |  |  |  | EC50 [2]: 3.04 µM (active); EC50 [3]: 123 µM (inconclusive); EC50 [4]: 6.39 µM (active) |
| Cc1cccc(N(CC(=O)NCCSCc2ccco2)S(=O)(=O)c2ccccc2)c1 | 3.55 µM (inconclusive) |  |  |  |
| COc1ccc(CC(=O)N/N=C(\C)c2ccc(Br)s2)cc1 |  | > 47.1 µM (inactive) | > 53 µM (inactive) |  |
| Cc1nc2ncnn2c(C)c1CCC(=O)Nc1ccc(S(=O)(=O)N2CCCCCC2)cc1 | 39.8 µM (inconclusive) |  |  |  |
| CCOc1cc(N2CCOCC2)c(OCC)cc1NC(=O)C1=NN(c2cccc(C)c2)C(=O)CC1 |  |  |  | EC50 [2]: 13.8 µM (active); EC50 [3]: > 150 µM (not active); EC50 [4]: 123 µM (active) |
| CCOc1ccccc1N1CCN(C(=O)Cc2ccc(S(=O)(=O)N3CCOCC3)s2)CC1 |  | > 47.1 µM (inactive) | > 53 µM (inactive) |  |
| CC(C)(C)NC(=O)/C(=C/c1ccccc1F)NC(=O)c1ccc([N+](=O)[O-])cc1 |  | > 47.1 µM (inactive) | > 53 µM (inactive) |  |
| CCOC(=O)C1CCCN(C(=O)COC(=O)c2cccs2)C1 (centres undefined) |  | > 47.1 µM (inactive) | > 53 µM (inactive) |  |
| c1ccc2c(NCCN3CCOCC3)nc(-c3ccoc3)nc2c1 | 15.8 µM (inconclusive) |  |  | AC50 [6]: 25.1 µM (inconclusive) |
| c1ccc2sc(C3(N4CCCCC4)CCCCC3)cc2c1 | 15.8 µM (inconclusive) and 25.1 µM (inconclusive) |  |  |  |
| O=c1c(-c2ccccc2)nc2cncnc2n1Cc1ccccc1Cl |  |  |  | AC50 ([5]; read-out: AC50): 7.94 µM (inconclusive); AC50 [11]: 3.16 µM (inconclusive) |
| COc1ccc(NC(=O)c2nc3nccc(C)n3n2)cc1S(=O)(=O)N1CCOCC1 |  | > 47.1 µM (inactive) | > 53 µM (inactive) |  |
| CCOc1ccc(C(=O)NC(=S)Nc2ccc(NC(=O)CC)cc2)cc1[N+](=O)[O-] |  |  |  | EC50 [2]: 4.28 µM (active); EC50 [3]: > 150 µM (not active); EC50 [4]: 64.4 µM (active) |
| O=C(Oc1ccccc1)N1CCC2(CCCN(Cc3ccccc3)C2)CC1 | 12.6 µM (inconclusive) |  |  | AC50 [6]: 10 µM (inconclusive) |
| CC(NC(=O)COC(=O)c1ccc2c(=O)n3c(nc2c1)CCCCC3)c1ccccc1 (centres undefined) |  | > 47.1 µM (inactive) | > 53 µM (inactive) |  |
